Measurements from US12458647B2, “Macrocyclic derivative and use thereof” (Guangzhou Joyo Pharmatech Co., Ltd., priority 2022, dated 2025).

How the values were obtained:
[1] = system: AsPC-1 cells; assay: In vitro cell proliferation experiment (5 days), AsPC-1; format: cell-based; conditions: AsPC-1, 5 days; read-out: Inhibitory Activity IC50
Protocol: (§1) RPMI 1640 medium, DMEM, Ham's F12 medium, F12K medium, IMDM and penicillin/streptomycin antibiotics were purchased from Gibco, fetal bovine serum was purchased from Hyclone, Envision multilabel plate reader (PerkinElmer). […]
(§2) The test compound was diluted by 5-fold to 8 concentrations with a pipette, i.e., from 2 mM to 25.6 nM, and replicate wells were set up for the experiment. […] Another cell plate was prepared, and the signal value was read as the maximum value (the maximum value in the following equation) on the day of dosing for data analysis.
(§3) 50 μL of cell viability chemiluminescent detection reagent was added to the cell plate and incubated at room temperature for 30 minutes to stabilize the luminescence signal. A multilabel plate reader was used for reading. […]

[2] = system: HCT116 cells; assay: In vitro cell proliferation experiment (5 days), HCT116; format: cell-based; conditions: HCT116, 5 days; read-out: Inhibitory Activity IC50
Protocol: as §1, §2, §3

[3] = system: LOVO cells; assay: In vitro cell proliferation experiment (5 days), LOVO; format: cell-based; conditions: read-out: Inhibitory Activity IC50
Protocol: as §1, §2, §3

[4] = system: A549 cells; assay: In vitro cell proliferation experiment (5 days), A549; format: cell-based; conditions: A549, 5 days; read-out: Inhibitory Activity IC50
Protocol: as §1, §2, §3

[5] = system: LU99 cell line; assay: In vitro cell proliferation experiment (5 days), LU99; format: cell-based; conditions: LU99, 5 days; read-out: Inhibitory Activity IC50
Protocol: as §1, §2, §3

[6] = In vitro determination of whole blood to plasma concentration ratios, human; format: in vitro ADME; conditions: 1 μM, 37° C., 60 minutes
Protocol: (§4) (1) Fresh mouse and human whole blood (n≥3 for number of individual animals and n≥2 for number of individual humans) were collected in blood collection tubes containing EDTAK2 anticoagulant. Whole blood samples had to be mixed well and stored at 2-8° C. or on wet ice before use. They were used within 36 hours of whole blood collection. Blank whole blood was centrifuged at 2,000×g for 15 minutes at room temperature to obtain blank plasma. The plasma status was checked and hemolyzed plasma samples could not be used.
(§5) (2) The hematocrit (the percentage content of red blood cells in whole blood) was determined by centrifugation of whole blood samples in microhematocrit centrifuge tubes.
(§6) (3) Diclofenac (all species), chlorthalidone (mouse) or chloroquine (human) were used as control compounds.
(§7) (4) ACN solution containing 2% DMSO with a final concentration of 1 μM of the test compound was added to blank whole blood samples, and three parallel treatments were performed. The final content of the organic phase in the system should not exceed 0.5% (the content of DMSO should not exceed 0.1%). A certain volume of the drug-containing whole blood sample was pipetted to the sample receiving plate (three replicates), an equal volume of blank plasma was added, and mixed well to obtain the T0 sample.
(§8) (5) The whole blood sample containing the test compound was incubated at 37° C. with shaking for 60 minutes.
(§9) (6) After the end of incubation, a certain volume of whole blood samples containing the drug was pipetted to the sample receiving plate (three replicates) as T60-whole blood samples.
(§10) (7) The remaining whole blood samples were centrifuged at 2,000×g for 15 minutes in a 37° C. centrifuge to obtain plasma samples. A certain volume of plasma was pipetted to the sample receiving plate (three replicates) as T60-plasma samples.
(§11) (8) During sample treatment, all samples were equilibrated with the matrix (i.e., blank whole blood or blank plasma of the same volume was added) and mixed well.
(§12) (9) 1-fold volume of pure water was added to the equilibrated sample, and then a certain volume of stop solution containing internal standard compound was added to terminate the reaction.
(§13) (10) The analytes and control compounds in the samples were determined by liquid chromatography-tandem mass spectrometry (LC-MS/MS) method. The ratio of analyte peak area to internal standard peak area was used to represent the concentration in the sample.
(§14) See Table 7 for the experimental results. Wherein KB/P represents the concentration ratio of the compound in whole blood and plasma. KE/P represents the concentration ratio of the compound in red blood cells and plasma, and recovery (%) represents the recovery of the compound in whole blood.

[7] = In vitro determination of whole blood to plasma concentration ratios, mouse; format: in vitro ADME; conditions: CD-1 mouse whole blood, 1 μM, 37° C., 60 minutes
Protocol: as §4, §5, §6, §7, §8, §9, §10, §11, §12, §13, §14

| IC50 [1] | IC50 [2] | IC50 [3] | IC50 [4] | KB/P (concentration ratio of the compound in whole blood and plasma) [6] | KE/P (concentration ratio of the compound in red blood cells and plasma) [6] | Recovery (%) of the compound in whole blood [6] | KB/P (concentration ratio of the compound in whole blood and plasma) [7] | KE/P (concentration ratio of the compound in red blood cells and plasma) [7] | Recovery (%) of the compound in whole blood [7] | SMILES | IC50 [5] |
| --- | --- | --- | --- | --- | --- | --- | --- | --- | --- | --- | --- |
| 2.1 nM | 5.5 nM | 2.8 nM | 4.1 nM | 3.5 | 6.5 | 96.4% | 5.3 | 9.4 | 101.5% | CCn1c(-c2cc(N3CCN(C)CC3)cnc2C(C)OC)c2c3cc(ccc31)-c1csc(n1)CC(NC(=O)C1C(C)C1C)C(=O)N1NC(C(=O)OCC(C)(C)C2)C2CC1C2 (single isomer, unassigned) [Compound 6A] | 8.7 nM |
| 6.6 nM |  | 5.9 nM |  | 2.6 | 5.2 | 102.6% | 5.1 | 8.1 | 97.3% | CCn1c(-c2cc(N3CCN(C)CC3)cnc2C(C)OC)c2c3cc(ccc31)-c1csc(n1)CC(NC(=O)C1CC1C)C(=O)N1NC(C(=O)OCC(C)(C)C2)C2CC1C2 (single isomer, unassigned) [Compound 7A] |  |
